According to PMC9832505, “Cell Adhesion Motif-Functionalized Lipopeptides: Nanostructure and Selective Myoblast Cytocompatibility” (Biomacromolecules, 2022):
Residues, ends and D or L forms follow the SMILES beside them.

Columns and labels:
L929 murine fibroblast = assay: MTT cytotoxicity assay on L929 fibroblasts; format: cell-based, mouse; details: for cell viability: 0.1 wt %; for cell survival: 1 wt %
Description: (§1) L929 murine fibroblast and C2C12 immortalized mouse myoblast cell lines (both from ECACC General Cell Collection) were grown in Dulbecco’s modified Eagle’s medium (DMEM) supplemented with 10% fetal bovine serum, 20 mM HEPES, and 1% GlutaMAX. The cells were maintained at pH 7.4, 37 °C, and 5% CO2 in 25 cm^2 cell culture flasks.
(§2) Cells were seeded in 96-well plates at a density of 0.6 × 10^4 cells per well. Cells were then treated with peptides dissolved in the medium at the concentrations of 0.1 and 1 × 10^–4 wt %. To test cytocompatibility in the presence of the hydrogels, wells were filled with 1 wt % mG and pG hydrogels before seeding. At the end of the treatment (after 24 or 72 h), cell viability was assessed using an MTT [3-(4, 5-dimethylthiazolyl-2)-2, 5-diphenyltetrazolium bromide] assay. In brief, after the removal of the culture medium, MTT, dissolved in DMEM at a concentration of 0.5 mg/mL, was added to the cells and incubated for 4 h at 37 °C. The resulting formazan crystals were dissolved by adding dimethyl sulfoxide. Absorbance values of blue formazan were determined at 560 nm using an automatic plate reader. Cell survival was expressed as a percentage of viable cells in the presence of peptides, compared to control cells grown in their absence. The assay was repeated three times, and the results were averaged. Statistical significance was tested using multiple Welch’s t-tests. All analyses were conducted using Prism 7.

[1] = system: C2C12 immortalized mouse myoblast; assay: MTT cytotoxicity assay on C2C12 myoblasts; format: cell-based; details: for cell viability: 72 h, 0.1 wt %; for tolerance of hydrogels in words: C2C12 on hydrogels (1 wt %), 24 h and 72 h, MTT
Description: as §1, §2

[2] = not given; remark: listed apart in the source
[3] = not given; remark: listed apart in the source

## CCCCCCCCCCCCCCCC(=O)N[C@@H](Cc1c[nH]c2ccccc12)C(=O)NCC(=O)NCC(=O)N[C@@H](CCCNC(=N)N)C(=O)NCC(=O)N[C@@H](CC(=O)O)C(=O)N[C@@H](CO)C(=O)O [pW, C16-WGGRGDS] (HELM PEPTIDE1{[CCCCCCCCCCCCCCCC(=O)[*:2]].W.G.G.R.G.D.S}$$$$V2.0)
L929 murine fibroblast; 72 h
  cell viability: 36.3 ± 5.1%
[1]
  cell viability: 73.3 ± 2.8%
other
  fiber mean diameter: 4 nm

## CCCCCCCCCCCCCC(=O)NCC(=O)NCC(=O)NCC(=O)N[C@@H](CCCNC(=N)N)C(=O)NCC(=O)N[C@@H](CC(=O)O)C(=O)N[C@@H](CO)C(=O)O [mG, C14-GGGRGDS] (HELM PEPTIDE1{[CCCCCCCCCCCCCC(=O)[*:2]].G.G.G.R.G.D.S}$$$$V2.0)
L929 murine fibroblast; 24 h
  cell survival: 92.6 ± 8.8%
L929 murine fibroblast; 72 h
  cell viability: 30.7 ± 4.7%
  cell survival: 94.6 ± 12.6%
[2]
  nanotape mean thickness in hydrogel: 13.6 nm
[1]
  cell viability: 84.4 ± 9.6%
  tolerance of hydrogels in words: reasonably well tolerated

## CCCCCCCCCCCCCCCC(=O)NCC(=O)NCC(=O)NCC(=O)N[C@@H](CCCNC(=N)N)C(=O)NCC(=O)N[C@@H](CC(=O)O)C(=O)N[C@@H](CO)C(=O)O [pG, C16-GGGRGDS] (HELM PEPTIDE1{[CCCCCCCCCCCCCCCC(=O)[*:2]].G.G.G.R.G.D.S}$$$$V2.0)
L929 murine fibroblast; 72 h
  cell viability: 31.8 ± 5.1%
[1]
  cell viability: 86.0 ± 6.8%
  tolerance of hydrogels in words: reasonably well tolerated

## CCCCCCCCCCCCCC(=O)N[C@@H](Cc1c[nH]c2ccccc12)C(=O)NCC(=O)NCC(=O)N[C@@H](CCCNC(=N)N)C(=O)NCC(=O)N[C@@H](CC(=O)O)C(=O)N[C@@H](CO)C(=O)O [mW, C14-WGGRGDS] (HELM PEPTIDE1{[CCCCCCCCCCCCCC(=O)[*:2]].W.G.G.R.G.D.S}$$$$V2.0)
[3]
  nanotube radius: 750 Å
L929 murine fibroblast; 72 h
  cell viability: 28.1 ± 3.1%
[1]
  cell viability: 72.3 ± 10.2%
